These results are taken from patent US20240199557A1, “METHODS OF MAKING 1-BENZYL-4-PHENYL-1H-1,2,3-TRIAZOLE (BPT) AND BPT COATED STRUCTURES” (BOARD OF REGENTS, THE UNIVERSITY OF TEXAS SYSTEM, priority 2022, published 2024).

Each structure is given as a SMILES string.

Data set [1] in a line: Anodic cyclic polarization (CYP): pitting potential. From the text:
(§1) The steel cylinder working electrode (WE) were cross-sectioned and encased in epoxy. The surface was polished using 120 grit to 600 grit SiC paper, resulting in an exposed area of 0.499±0.01 cm^2. A Pt mesh was used as the counter electrode (CE). In terms of the reference electrodes (RE), a Saturated Calomel Electrode (SCE) was used for solutions with chloride and a Mercury Mercurous Sulfate Electrode (MSE) for solutions without chloride, satisfying the electrochemical cell requirements of ASTM standard G5 [38]. Though the experiments without chlorides were measured with MSE, the results were converted to SCE.
(§2) The WE, RE, and CE were placed in a test cell containing a synthetic pore solution (SPS). This SPS mimics the concrete pore environment and followed a formula consisting of 8.33 g/L NaOH+23.3 g/L KOH+2.0 g/L Ca(OH)2 (pH:13.6). These solutions were prepared using deionized water from a Milli-Q Water Purification System (resistivity: 18.2-18.7 MΩ·cm) and analytically pure grade reagents.
The testing procedure involved an initial pH measurement of the solution followed by purging the cell with CO2-free air (300 cc/min or more) for 5 minutes, prior to introducing the WE and throughout the experiment to reduce the effects of carbonation. More details can be found elsewhere. 2 M NaCl was chosen for the experiments since previously tested concentrations were not able to break the passive film generated in this highly alkaline environment. After chloride addition, the electrolyte was stirred for 4 h, while continuing to purge with CO2-free air. Then stirring stopped and purging was continued for 20 h to allow for passivation of the substrate. […] This procedure is similar to ASTM G180 [41]. The difference is related to the use of SPS instead of a cement slurry. Using a Gamry Reference 600+Potentiostat, different electrochemical tests were performed including open circuit potential (OCP), linear polarization resistance (LPR) and Anodic Cyclic Polarization (CYP).
LPR tests were performed from −0.030 V to +0.030 V from OCP, with a scan rate of 0.167 mV/s, in accordance with ASTM G59. CYP ran at a scan rate of 0.167 mV/s, beginning at 0.030 V more negative than the OCP with a maximum i of 1 mA/cm^2. Tests were performed to verify that pitting was occurring and not crevice corrosion occurred during CYP. After each experiment, the specimen was rinsed with D.I. water, degreased with ethanol, and dried. Surface images were taken using BX53 Olympus microscope to evaluate the corrosion morphology. […]
It is observed that for all conditions evaluated the passive film on the steel was formed, but the pitting potential (Ep) changed, being higher with the increase in BPT concentration (Table 3).

The conditions of data set [2]: A36 mild steel, 1M HCl, 298 K; 2.311 mm/year without inhibitor; cited from earlier work.
A short description of data set [3]: Stability/solubility of BPT in SPS and co-dissolvers. In kind it is physicochemical. How it is done:
Initial tests were run to find the stability/solubility of BPT in SPS. […] Several co-dissolvers were tested (ethyl alcohol 95%, isopropyl alcohol, acetone, dimethylsulfoxide, dimethylformamide, ethylenglycol, diethylenglycol, and 1-Methyl-2-pyrrolidinone), to aid in the solubility of the BPT in SPS. From these co-dissolvers, the organic compound N-methyl-2-pyrrolidone (NMP) performed the best and was selected at a concentration of 2.35 mg of BPT/mL of NMP (BPT saturated NMP solution).

A short description of data set [4]: Linear polarization resistance (LPR): corrosion rate and inhibitor efficiency of steel rebar in synthetic pore solution.
Text: as §1, §2
The testing procedure involved an initial pH measurement of the solution followed by purging the cell with CO2-free air (300 cc/min or more) for 5 minutes, prior to introducing the WE and throughout the experiment to reduce the effects of carbonation. More details can be found elsewhere. 2 M NaCl was chosen for the experiments since previously tested concentrations were not able to break the passive film generated in this highly alkaline environment. After chloride addition, the electrolyte was stirred for 4 h, while continuing to purge with CO2-free air. Then stirring stopped and purging was continued for 20 h to allow for passivation of the substrate. […]
The results of the LPR measurements for the different conditions tested are presented in FIG. 3 as CR, which was determined using an estimated Stem-Geary coefficient (B) of 26 mV (corroding bars) and Rp values calculated, all following ASTM G59 [72, 73]. […]
The efficiency (IE, %) of the BPT was calculated using the CR results when Cl^− was added to the control solution (CRSPS) and solutions containing BPT (CRBPT), using Equation (1). […]

Data set [5] is described as follows: XRD quantitative phase analysis of carbon steel discs after immersion. How it is done:
Four 3 mm height discs were cut from […] diameter steel rebar and one of their flat faces was polished using silicon carbide sandpaper with 250, 400 and, 600 grit. Subsequently each disc was immersed for 90 seconds in 10 mL of a freshly prepared Clarke solution [42], rinsed thoroughly with water, acetone and dried under a soft stream of dry N2. The crystalline structure of the samples was analyzed on their sheeny face employing X-Ray powder diffraction (XRD) using a Bruker D8 Advance Eco diffractometer applying Cu-Kα1,2 radiation. All samples were scanned at 40 kV and 25 mA in the […] of 31-66° and 2.0 s of step time per 2θ=0.019°. The crystalline planes used to perform the quantitative phase analysis (QPA) are for iron at 2θ=44.6°; [2,0,0] for lepidocrocite at 2θ=47.4° and, [2,2,0] for goethite at 2θ=33.6°.
Subsequently, each one of the discs was immersed in a solution with the composition as described on Table 5 and their surfaces were analyzed using XRD four weeks later. The diffraction patterns are shown in FIG. 9 and the quantitative phase analysis (QPA) data is given on Table 6.

Take `c1ccc(Cn2cc(-c3ccccc3)nn2)cc1` [BPT, 1-Benzyl-4-Phenyl-1H-1,2,3-triazole]: the “Ep (pitting potential)” value in data set [1] (1 mM BPT in SPS, 2M NaCl) is 149.25 mV vs. SCE; in data set [1] (2 mM BPT in SPS, 2M NaCl), 404.04 mV vs. SCE; in data set [1] (3 mM BPT in SPS, 2M NaCl) it was 302.06 mV vs. SCE; in data set [1] (Adj. 3 mM BPT+NMP (hydroxide concentration adjusted to SPS), 2 M NaCl) it was 429.53±1.29 mV vs. SCE. Besides, the “corrosion kinetics (corrosion rate) with BPT” value in data set [2] is reported as 0.429 mm/year. The “stability in SPS” value in data set [3] (alkaline solution (SPS, pH 13.6)) is recorded as “stable in the alkaline solution”. Also, in data set [3] (in N-methyl-2-pyrrolidone (NMP)), the “concentration of BPT saturated NMP solution” value is on record as 2.35 mg of BPT/mL of NMP. Moreover, in data set [3] (water), the solubility in water result is given as “unable to dissolve in water”. Besides, the “efficiency (IE, %)” value in data set [4] (3 mM BPT in SPS with 2 M NaCl, calculated from CR by Equation (1)) is recorded as 85.2%. Moreover, the “concentrations at which BPT can inhibit the corrosion of carbon steel rebar” value in data set [4] (SPS with 2 M NaCl) is “higher than 2 mM”. Besides, in data set [4] (SPS with 2 M NaCl), the “optimal concentration of BPT to inhibit corrosion on carbon steel rebar” value was 3 mM. Further, the AFe/AGoe in data set [5] (SPS with NaCl in presence of BPT) is given as 0. Moreover, the AFe/ALep in data set [5] (disc 4: SPS + 2M NaCl + NMP + 3 mM BPT, four-week immersion) is on record as 26,908.
